Values of other authors, collected in patent US20110264374A1, “Method, Computer Program Product and System for Individual Assessment of Alcohol Sensitivity” (UNIVERSITY OF VIRGINIA PATENT FOUNDATION, priority 2007, published 2011).

Columns and labels:
[1] = blood ethanol, oral ingestion; adopted from the literature [16, 24, 25]

## CCO [ethanol, Ethyl Alcohol]
[1]
  AUC (area under the curve): 230 µg·h/mL
  Cmax: 161.4 µg/mL
  tmax: 47 min
After consumption of one standard drink
  time to peak amount of alcohol in the blood: 30 to 45 min
In vivo
  remainder not metabolized, excreted in sweat, urine and breath: 10%
  share of alcohol entering the body completely metabolized in the liver: More than 90%
Oral consumption
  share of consumed alcohol absorbed from the small intestine: approx. 80%
  share of consumed alcohol absorbed from the stomach: approx. 20%
